This is an account of results in patent publication US20200085839A1, “COMBINATION OF IMMUNOTHERAPEUTICS AND BISFLUOROALKYL-1,4-BENZODIAZEPINONE COMPOUNDS FOR TREATING LYMPHOMAS” (Ayala Pharmaceuticals Inc., priority 2018, published 2020).

Molecules are shown by their SMILES. Entries after “also recorded” stand apart in the source; their conditions may differ.

The subject of assay [1] is SP49, Toledo, RC, SUDHL-4 and SUDHL-6 lymphoma cell lines. The assay can be described thus: Cell surface BCMA by FACS, five lymphoma cell lines. It is filed as cell-based, human. Conditions: SUDHL-4, SUDHL-6, 10 nM or more, 24 h. How it is done: (§1) Cells were seeded at 1×10^4 cells/well in a total volume of 250 μl into a 96-well plate. The cells were cultured in RPMI supplemented with 10% FCS.
(§2) The tested compounds (Compound 1 and Compound 22) were added to the cell cultures at concentrations of: 0, 10, 1, 0.5, 0.1, 0.01, 0.001 μM ([…], 10 nM, 100 nM, 500 nM, 1000 nM, and 10000 nM). Following 24 hours of incubation at 37° C., the cells were collected and stained with anti-BCMA antibody and immediately analyzed by FACS.
The effect of γ-secretase inhibitors on cell surface BCMA levels in lymphoma cell lines was observed using flow cytometry (FACS analysis) (FIG. 4). Cells from five different lymphoma cell lines were treated for 24 hours with different concentrations of Compound 1 (FIG. 4A) or Compound 22 (FIG. 4B). Lymphoma cell lines treated were: SP49 (MCL with Notch4 GOF); Toledo (DLBCL); RC (Double Hit DLBCL—MYC, BCL2); SUDHL-4 (DLBCL); and SUDHL-6 (DLBCL). GSI concentrations were 0, 1 nM, 10 nM, 100 nM, 500 nM, 1000 nM, and 10000 nM.
For orientation: In flow cytometry, cells or beads pass a laser one at a time.

Assay [2] has as its system U266 cells (MM cell line). In words: Cell-bound BCMA by flow cytometry. The class given is cell-based, human. Conditions: 24 h; for cell-bound BCMA levels: FIG. 1; for effectiveness at increasing cell-bound BCMA compared with other GSIs: all doses above 0.3 nM. On the procedure: FIG. 1. Levels of cell-bound BCMA en multiple myelma (MM) cells Incubated with γ-secretase inhibitors (GSIs). U266 cells (MM cell line) were incubated with 0.3 nM, 0.5 nM, 1 nM or 3 nM of GSI (Compound 1, Compound 22, LY3039478 or PF3084014) for 24 hours, and BCMA levels were measured by flow cytometry.
(§3) For detecting levels of soluble and cell-bound BCMA, U266 cells (MM cell line) were seeded at 1×10^5 cells/well in a total volume of 250 μl into a 96-well plate. The cells were cultured in RPMI medium supplemented with 10% FCS. GSIs (Compound 1, Compound 22, LY3039478 (Lilly), and PF3084014 (Pfizer)) were added to U266 cell cultures at a concentration of 0.3 nM, 0.5 nM, 1 nM and 3 nM for soluble BCMA and at a concentration of […]. Following 24 hours of incubation at 37° C., the cells were collected, and BCMA levels were evaluated in both the cells (cell-bound BCMA) and the cell media (soluble BCMA). Cells were stained with an anti-BCMA antibody (PE anti-human CD269 BCMA, Biolegend). Soluble BCMA levels were analyzed by ELISA (Human BCMA/TNFRSF17 DuoSet kit: R&D Systems).

The test system of assay [3] is B-ALL cell lines RSV411, REH, 018Z. In words: Cell surface BCMA by FACS, B-ALL cell lines. It is filed as cell-based, human. Conditions: up to 10 μM, 24 h. How it is done: as §1, §2
The effect of γ-secretase inhibitors on cell surface BCMA levels in Acute B-Cell Lymphoblastic Leukemia (B-ALL) cell lines was also observed using flow cytometry (FIG. 5). Cells from three different B-ALL cell lines were treated for 24 hours with different concentrations (0-10 μM) of GSIs (Compound 1 and Compound 22).

In assay [4] the test system is U266 cells (MM cell line). The assay can be described thus: Soluble BCMA in cell media by ELISA. The class given is cell-based, human. Conditions: for BCMA shedding: MM cells (U266), cell-bound and soluble BCMA. On the procedure:
FIG. 3. Levels of soluble BCMA In cell media after Incubation of multiple myeloma (MM) cells with γ-secretase inhibitors (GSIs). U266 cells (MM cell line) were incubated with 0.3 nM, 1 nM, 3 nM and 10 nM of GSI (Compound 1, Compound 22, LY3039478 or PF3084014) for 24 hours, and BCMA levels were measured by ELISA.
as §3
On the technique in general: In an ELISA, binding on a coated surface is turned into a signal by an enzyme label.

Assay [5] has as its system U266 human myeloma cell line cells in NSG mice. In words: Anti-tumor activity of BCMA-targeted CAR-T cells and Compound (1) in vivo. Conditions: combination with 1×10^6 BCMA targeted CAR-T cells IV on day 4; imaging day 11. On the procedure: BCMA targeted CAR-T cells mediate an anti-myeloma immune response. 1×10^7 U266 human myeloma cell line cells are injected IV into NSG mice on day 0. On day 4, a) 1×10^6 BCMA targeted second generation CAR-T cells, Compound (1) or both are injected IV.

The test system of a further assay is GFP^+ LPL line. In words: Lysis of GFP expressing tumor cell lines by BCMA-CAR-T cells and/or Compound (1). Conditions: BCMA-CAR-T cells and Compound (1) combined; 36 h. The class given is cell-based, human. From the text:
Multiple unique fully human scFvs to BCMA are generated, and CARs based on these scFvs are generated. Multiple scFvs are identified by screening a fully human scFv phage library (>6×10^10 scFvs) with BCMA-Fc fusion protein and then 3T3 cells expressing human BCMA. FACS analysis of phage antibody clones against BCMA-3T3 and parental 3T3 cell lines is used to confirm unique positive clones.
The generated scFvs are used to generate BCMA-targeted CARs. These BCMA-targeted CARs have similar structure, e.g., each has a transmembrane domain comprising a CD28 polypeptide, and an intracellular domain comprising a […] and a co-stimulatory signaling region that comprises a CD28 polypeptide. Each of these BCMA-targeted CARs are cloned into a retroviral vector. These viral vectors are then transduced into HEK 293galv9 viral packaging cells in order to generate a stable packaging line for generation of CAR+ T cells. […] The cell surface expression of BCMA-targeted CARs on human T cells is determined via binding A647 conjugated BCMA-Fc fusion protein. The cell surface expression of BCMA-targeted 28z CAR24 is assessed, and cell surface detection is validated by flow cytometry.
The ability of BCMA-CAR-T cells and Compound (1) to specifically lyse human myeloma cell line (HMCL) is tested. […] At time 0, the percent of GFP tumor line is determined.

For `Cc1cccc2c1NC(=O)[C@@H](NC(=O)[C@H](CCC(F)(F)F)[C@H](CCC(F)(F)F)C(N)=O)N=C2c1cccc(F)c1` [Compound (22), (2R,3S)—N-((3S)-5-(3-fluorophenyl)-9-methyl-2-oxo-2,3-dihydro-1H-1,4-benzodiazepin-3-yl)-2,3-bis(3,3,3-trifluoropropyl)succinamide], the “cell surface BCMA levels” value in assay [1] was “elevated BCMA levels”. Further, in assay [2], the “cell-bound BCMA levels” value is given as “increased cell-bound BCMA levels”; the “effectiveness at increasing cell-bound BCMA compared with other GSIs” value was “as effective as LY3039478 and more effective than PF3084014”. The BCMA expression result in assay [3] is reported as “did not affect BCMA expression”. Also, in assay [4], the BCMA shedding entry is on record as “inhibit BCMA shedding”. Also, in assay [4] (U266, 24 h), the “potency in reducing soluble BCMA in cell media compared with other GSIs” value is recorded as “more potent than Compound 1; also recorded: as potent as LY3039478; also recorded: more potent than PF3084014”.

As to `CN1C(=O)[C@@H](NC(=O)[C@H](CCC(F)(F)F)[C@H](CCC(F)(F)F)C(N)=O)N=C(c2ccccc2)c2ccccc21` [Compound 1, (2R,3S)—N-((3S)-1-methyl-2-oxo-5-phenyl-2,3-dihydro-1H-1,4-benzodiazepin-3-yl)-2,3-bis(3,3,3-trifluoropropyl)succinamide], in assay [5], the “anti-tumor response, imaging of tumors” value is given as “improved anti-tumor response compared to either BCMA targeted CAR-T or Compound (1) treatment alone”. Besides, in assay [1], the “cell surface BCMA levels” value is “elevated BCMA levels”. Besides, in assay [2], the “cell-bound BCMA levels” value is on record as “increased cell-bound BCMA levels”; the “effectiveness at increasing cell-bound BCMA compared with other GSIs” value is “as effective as LY3039478 and more effective than PF3084014”. Also, the BCMA expression result in assay [3] is reported as “did not affect BCMA expression”. Further, in assay [4], the BCMA shedding result was “inhibit BCMA shedding”. Further, the “specific killing of GFP tumor cells” value with GFP^+ LPL line was “specifically killed more cells of the GFP^+ LPL line than either treatment alone”.
